Test results as given in ChEMBL document CHEMBL1201862, “PubChem BioAssay data set” (2004).
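Five concentrations, 48 hours, 96-well plates. GI50 marks 50% less growth.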 Calls of active or inactive are those of the source. Rule as the data show it: active = GI50 up to about 1.1 µM and inactive = higher. Non-standard residues stand in square brackets, D forms with d. Residues, ends and D or L forms follow the SMILES beside them. ξ: configuration not given here. *: point of attachment. X18 = COC1=CC(=O)N(C(=O)C(O*)C(C)C)C1Cc1ccccc1; ξNMe2Val = CC(C)C(C(=O)*)N(C)C; NMeV = CN[CH](C(=O)O)C(C)C

Experiments:
Assay in all cases: NCI tumour cell line growth inhibition, 48 h
786-0 = test system: 786-0
A498 = test system: A498
A549 = test system: A549
ACHN = test system: ACHN
BT-549 = test system: BT-549
CAKI-1 = test system: CAKI-1
CCRF-CEM = test system: CCRF-CEM
COLO 205 = test system: COLO 205
DLD-1 = test system: DLD-1
DMS-114 = test system: DMS-114
DMS-273 = test system: DMS-273
DU-145 = test system: DU-145
EKVX = test system: EKVX
HCC 2998 = test system: HCC 2998
HCT-116 = test system: HCT-116
HCT-15 = test system: HCT-15
HL-60 = test system: HL-60
HOP-18 = test system: HOP-18
HOP-62 = test system: HOP-62
HOP-92 = test system: HOP-92
HT-29 = test system: HT-29
Hs-578T = test system: Hs-578T
IGROV-1 = test system: IGROV-1
K562 = test system: K562
KM-20L2 = test system: KM-20L2
KM12 = test system: KM12
LOX IMVI = test system: LOX IMVI
LXFL 529 = test system: LXFL 529
M14 = test system: M14
M19-MEL = test system: M19-MEL
MCF7 = test system: MCF7
MDA-MB-231 = test system: MDA-MB-231
MDA-MB-435 = test system: MDA-MB-435
MDA-N = test system: MDA-N
MOLT-4 = test system: MOLT-4
Malme-3M = test system: Malme-3M
NCI-H226 = test system: NCI-H226
NCI-H23 = test system: NCI-H23
NCI-H460 = test system: NCI-H460
NCI-H522 = test system: NCI-H522
NCI/ADR-RES = test system: NCI/ADR-RES
OVCAR-3 = test system: OVCAR-3
OVCAR-4 = test system: OVCAR-4
OVCAR-5 = test system: OVCAR-5
OVCAR-8 = test system: OVCAR-8
PC-3 = test system: PC-3
RPMI-8226 = test system: RPMI-8226
RXF 393 = test system: RXF 393
RXF 631 = test system: RXF 631
SF-268 = test system: SF-268
SF-295 = test system: SF-295
SF-539 = test system: SF-539
SK-MEL-28 = test system: SK-MEL-28
SK-MEL-2 = test system: SK-MEL-2
SK-MEL-5 = test system: SK-MEL-5
SK-OV-3 = test system: SK-OV-3
SN12C = test system: SN12C
SNB-19 = test system: SNB-19
SNB-75 = test system: SNB-75
SNB-78 = test system: SNB-78
SR = test system: SR
SW-620 = test system: SW-620
T47D = test system: T47D
TK-10 = test system: TK-10
U-251 = test system: U-251
UACC-257 = test system: UACC-257
UACC-62 = test system: UACC-62
UO-31 = test system: UO-31
XF498 = test system: XF498

Compound: COC1=CC(=O)N(C(=O)C(OC(=O)C2CCCN2C(=O)C2CCCN2C(=O)C(C(C)C)N(C)C(=O)C(NC(=O)C(C(C)C)N(C)C)C(C)C)C(C)C)C1Cc1ccccc1 (centres undefined) (ξNMe2Val-V[NMeV]PP-X18; configuration not given here)
- GI50 (786-0): 2.23 nM (active)
- GI50 (A498): 4.24 nM (active)
- GI50 (A549): 9.55 nM (active)
- GI50 (ACHN): 9.31 nM (active)
- GI50 (BT-549): 0.46 nM (active)
- GI50 (CAKI-1): 1.03 nM (active)
- GI50 (CCRF-CEM): 0.309 nM (active)
- GI50 (COLO 205): 1.63 nM (active)
- GI50 (DLD-1): 1.08 nM (active)
- GI50 (DMS-114): 0.476 nM (active)
- GI50 (DMS-273): 1.03 nM (active)
- GI50 (DU-145): 0.618 nM (active)
- GI50 (EKVX): 2.42 nM (active)
- GI50 (HCC 2998): 2.05 nM (active)
- GI50 (HCT-116): 0.582 nM (active)
- GI50 (HCT-15): 1.4 nM
- GI50 (HL-60): 0.171 nM (active)
- GI50 (HOP-18): < 10 nM (active)
- GI50 (HOP-62): 4.61 nM (active)
- GI50 (HOP-92): 2.94 nM (active)
- GI50 (HT-29): 0.573 nM (active)
- GI50 (Hs-578T): 0.188 nM (active)
- GI50 (IGROV-1): 2.31 nM (active)
- GI50 (K562): 0.349 nM (active)
- GI50 (KM-20L2): 1.35 nM (active)
- GI50 (KM12): 2.38 nM (active)
- GI50 (LOX IMVI): 0.849 nM (active)
- GI50 (LXFL 529): 1.19 nM (active)
- GI50 (M14): 2.7 nM (active)
- GI50 (M19-MEL): 3.19 nM (active)
- GI50 (MCF7): 0.24 nM (active)
- GI50 (MDA-MB-231): 1.46 nM (active)
- GI50 (MDA-MB-435): 0.0513 nM (active)
- GI50 (MDA-N): 0.0361 nM (active)
- GI50 (MOLT-4): 1.02 nM (active)
- GI50 (Malme-3M): 2.7 nM (active)
- GI50 (NCI-H226): 7.73 nM (active)
- GI50 (NCI-H23): 3.15 nM (active)
- GI50 (NCI-H460): 1.58 nM (active)
- GI50 (NCI-H522): 0.347 nM (active)
- GI50 (NCI/ADR-RES): 23.4 nM (active)
- GI50 (OVCAR-3): 0.327 nM (active)
- GI50 (OVCAR-4): 8.26 nM (active)
- GI50 (OVCAR-5): < 10 nM (active)
- GI50 (OVCAR-8): 2.01 nM (active)
- GI50 (PC-3): 1.58 nM (active)
- GI50 (RPMI-8226): 0.524 nM (active)
- GI50 (RXF 393): 1.64 nM (active)
- GI50 (RXF 631): 4.59 nM (active)
- GI50 (SF-268): 1.89 nM (active)
- GI50 (SF-295): 1.61 nM (active)
- GI50 (SF-539): 1.35 nM (active)
- GI50 (SK-MEL-28): 3.09 nM (active)
- GI50 (SK-MEL-2): 0.902 nM (active)
- GI50 (SK-MEL-5): 1.09 nM (active)
- GI50 (SK-OV-3): 4.85 nM (active)
- GI50 (SN12C): 1.88 nM (active)
- GI50 (SNB-19): 6.29 nM (active)
- GI50 (SNB-75): 1.8 nM (active)
- GI50 (SNB-78): 2.44 nM (active)
- GI50 (SR): 0.251 nM (active)
- GI50 (SW-620): 0.469 nM (active)
- GI50 (T47D): < 10 nM (active)
- GI50 (TK-10): 6.82 nM (active)
- GI50 (U-251): 2.35 nM (active)
- GI50 (UACC-257): 2.5 nM (active)
- GI50 (UACC-62): 1.89 nM (active)
- GI50 (UO-31): 9.38 nM (active)
- GI50 (XF498): 0.308 nM (active)
